Data: patent US20250197387A1, “BCL-XL DEGRADERS AND USES THEREOF” (Kymera Therapeutics, Inc., priority 2021, published 2025)

What was measured:
Format in all cases: cell-based
BCL-XL [1] = target: T1, BCL-XL (Homo sapiens, UniProt Q07817); test: BCL-XL degradation assay, western blot in MOLT-4 cells, 16 h; conditions: western blot, MOLT-4 cells, 16 h; for Dmax: read-out: Bcl-xL WB in MOLT-4 degradation 16 h: Average Dmax %; for DC50: read-out: Bcl-xL WB in MOLT-4 degradation 16 h: Mean external-Abs DC50
T1 construct: endogenous in cells; host or cells: MOLT-4
T1 sequence (Q07817 whole entry): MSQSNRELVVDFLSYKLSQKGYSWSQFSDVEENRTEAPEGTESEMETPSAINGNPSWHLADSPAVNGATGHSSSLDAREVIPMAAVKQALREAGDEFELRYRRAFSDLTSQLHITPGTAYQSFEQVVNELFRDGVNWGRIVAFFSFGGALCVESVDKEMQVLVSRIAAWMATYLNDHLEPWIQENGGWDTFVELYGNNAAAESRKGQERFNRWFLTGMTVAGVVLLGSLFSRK
Procedure, shortened: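 MOLT-4 cells treated with compounds at 0.02-10 μM final for 16 hr at 37° C; lysates analysed by western blot with anti-BCL-xL, beta-actin and GAPDH loading controls, infrared imaging and densitometry; DC50 and Dmax % reported as letter codes.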

BCL-XL [2] = target: T1, BCL-XL; test: Bcl-xL ELISA degradation in MOLT-4 cells, 6 h; conditions: for DC50: read-out: Bcl-xL ELISA in MOLT-4 degradation 6 h: Mean external-Abs DC50
Description: The letter codes for BCL-XL DC50 include: A (<0.01 μM); B (0.01-0.1 μM); C (>[…]); D (>0.5-1.0 μM); and E (>1.0 μM). The letter codes for Dmax % include A (>75%); B (50 to 75%); C (<50%).

MOLT-4 cells = test: CTG (CellTiter-Glo) cell viability assay, MOLT-4; conditions: Homo sapiens, MOLT-4, 72 h, 3 day incubation, read-out: CTG Cell Viability Assay - MOLT-4 3 day: Average external-IC50
Description: Compound-mediated viability effect on MOLT-4 and Caki-2 was quantitatively determined using the CellTiter-Glo® Luminescent Cell Viability Assay kit from Promega (Catalog number G7570) following manufacturer's recommended procedures. Briefly, MOLT-4 and Caki-2 cells were seeded into 384 well plates (Grenier Bio-One, Catalog number 781080) with a density of 10,000 cells per well. Compounds were then added to the assay plate with final top concentration of 10 μM and 1:3 dilution series with total of 9 doses. The final DMSO concentration is normalized to 0.2%. The assay plates were incubated at 37° C., for 3 days under 5% CO2. Then the assay plate was equilibrated at room temperature for 10 minutes. To determine cell viability, 30 uL CellTiter Glo reagent was added to each well and the assay plate was centrifuged at 1000 rpm for 30 second, incubated at room temperature for 10 min, and analyzed by detecting the luminescence using a multimode plate reader (EnVision 2105, PerkinElmer). The data was then analyzed by software Prism 7.0 from GraphPad and the dose response curves are fit using a three-parameter logistic equation to calculate IC50.
The letter codes for MOLT-4 IC50 include: A (<0.1 μM); B (0.1-1.0 μM); C (>1.0-3.0 μM); and D (>3.0 μM). The letter codes for Caki-2 IC50 include: A (<0.1 μM); B (0.1-1.0 μM); C (>1.0-10.0 μM); and D (>10.0 μM).

Structure (SMILES)	Dmax (BCL-XL [1]) [%]	DC50 (BCL-XL [1]) [nM]	Dmax (BCL-XL [2]) [%]	DC50 (BCL-XL [2]) [nM]	IC50 (MOLT-4 cells) [nM]
Cc1ncsc1-c1ccc([C@H](C)NC(=O)[C@@H]2C[C@@H](O)CN2C(=O)[C@@H](NC(=O)N2CC3(CC(N4CCN(C(=O)c5nc(N6CCc7cccc(C(=O)Nc8nc9ccccc9s8)c7C6)ccc5-c5cnn(CC6CCCCC6)c5C)CC4)C3)C2)C(C)(C)C)cc1 [I-248]	50 to 75	10 to 100	< 50	> 1000	
Cc1ncsc1-c1ccc([C@H](C)NC(=O)[C@@H]2C[C@@H](O)CN2C(=O)[C@H](NC(=O)CCCCCCCS(=O)(=O)NC(=O)c2nc(N3CCc4cccc(C(=O)Nc5nc6ccccc6s5)c4C3)ccc2-c2cnn(CC3CCOCC3)c2C)C(C)(C)C)cc1 [I-166]					100 to 1000
Cc1ncsc1-c1ccc(CNC(=O)[C@@H]2C[C@@H](O)CN2C(=O)[C@@H](NC(=O)C2(F)CC2)C(C)(C)C)c(OCCCCC(=O)N2CCN(CCCC3(Cn4ncc(-c5ccc(N6CCc7cccc(C(=O)Nc8nc9ccccc9s8)c7C6)nc5C(=O)O)c4C)CCCCC3)CC2)c1 [I-169]					100 to 1000
Cc1ncsc1-c1ccc([C@H](C)NC(=O)[C@@H]2C[C@@H](O)CN2C(=O)[C@@H](NC(=O)C2CCN(c3ccc(S(=O)(=O)NC(=O)c4nc(N5CCc6cccc(C(=O)Nc7nc8cccnc8s7)c6C5)ccc4-c4cnn(CC5CCCCC5)c4C)cc3)CC2)C(C)(C)C)cc1 [I-241]	> 75	< 10	> 75	10 to 100	
Cc1ncsc1-c1ccc([C@H](C)NC(=O)[C@@H]2C[C@@H](O)CN2C(=O)[C@@H](c2cc(N3CC(N4CCC(NC(=O)c5nc(N6CCc7cccc(C(=O)Nc8nc9ccccc9s8)c7C6)ccc5-c5cnn(CC6CCCCC6)c5C)CC4)C3)no2)C(C)C)cc1 [I-236]	> 75	< 10	50 to 75	100 to 500	
Cc1ncsc1-c1ccc([C@H](C)NC(=O)[C@@H]2C[C@@H](O)CN2C(=O)[C@@H](NC(=O)COC2CCN(CCNC(=O)c3nc(N4CCc5cccc(C(=O)Nc6nc7ccccc7s6)c5C4)ccc3-c3cnn(CC4CCCCC4)c3C)CC2)C(C)(C)C)cc1 [I-163]					100 to 1000
Cc1ncsc1-c1ccc([C@H](C)NC(=O)[C@@H]2C[C@@H](O)CN2C(=O)[C@@H](NC(=O)COCCN2CCC(NC(=O)c3nc(N4CCc5cccc(C(=O)Nc6nc7ccccc7s6)c5C4)ccc3-c3cnn(CC4CCCCC4)c3C)CC2)C(C)(C)C)cc1 [I-152]					1000 to 3000
Cc1cc(N(CCCC(=O)N(C)CCCCOCC(=O)N[C@H](C(=O)N2C[C@H](O)C[C@H]2C(=O)N[C@@H](C)c2ccc(-c3scnc3C)cc2)C(C)(C)C)c2ccc(-c3cnn(CC4CCCCC4)c3C)c(C(=O)O)n2)nnc1Nc1nc2ccccc2s1 [I-157]					> 3000
Cc1ncsc1-c1ccc(CNC(=O)[C@@H]2C[C@@H](O)CN2C(=O)[C@@H](NC(=O)C2(F)CC2)C(C)(C)C)c(OCC2CCN(CC[C@H](CSc3ccccc3)Nc3ccc(S(=O)(=O)NC(=O)c4ccc(N5CCN(CC6=C(c7ccc(Cl)cc7)CCC(C)(C)C6)CC5)cc4)cc3S(=O)(=O)C(F)(F)F)CC2)c1 [I-249]	> 75	< 10	< 50	> 1000	
Cc1cc(N(CCCC(=O)N(C)CCOCC(=O)N[C@H](C(=O)N2C[C@H](O)C[C@H]2C(=O)N[C@@H](C)c2ccc(-c3scnc3C)cc2)C(C)(C)C)c2ccc(-c3cnn(CC4CCCCC4)c3C)c(C(=O)O)n2)nnc1Nc1nc2ccccc2s1 [I-156]					> 3000
C#Cc1ccc([C@H](CO)NC(=O)[C@@H]2C[C@@H](O)CN2C(=O)[C@@H](NC(=O)C2CCN(c3ccc(S(=O)(=O)NC(=O)c4nc(N5CCc6cccc(C(=O)Nc7nc8ccccc8s7)c6C5)ccc4-c4cnn(CC5CCCCC5)c4C)cc3)CC2)C(C)(C)C)cc1 [I-242]	> 75	< 10	> 75	10 to 100	
Cc1ncsc1-c1ccc([C@H](C)NC(=O)[C@@H]2C[C@@H](O)CN2C(=O)[C@@H](c2cc(N3CC4(CN(c5ccc(S(=O)(=O)NC(=O)c6nc(N7CCc8cccc(C(=O)Nc9nc%10ccccc%10s9)c8C7)ccc6-c6cnn(CC7CCCCC7)c6C)cc5)C4)C3)no2)C(C)C)cc1 [I-226]	> 75	< 10	50 to 75	10 to 100	
Cc1cc(N(C)c2ccc(-c3cnn(CC45CC6CC(CC(C6)C4)C5)c3C)c(C(=O)NS(=O)(=O)c3ccc(N4CCC(C(=O)N[C@H](C(=O)N5C[C@H](O)C[C@H]5C(=O)N[C@@H](C)c5ccc(-c6scnc6C)cc5)C(C)(C)C)CC4)cc3)n2)nnc1Nc1nc2ccccc2s1 [I-246]	> 75	< 10	> 75	10 to 100	
Cc1ncsc1-c1ccc([C@H](C)NC(=O)[C@@H]2C[C@@H](O)CN2C(=O)C(c2cc(OC3CCN(CCNC(=O)c4nc(N5CCc6cccc(C(=O)Nc7nc8ccccc8s7)c6C5)ccc4-c4cnn(CC5CCCCC5)c4C)CC3)no2)C(C)C)cc1 (some centres unmarked) [I-234]	50 to 75	10 to 100	< 50	> 1000	
Cc1ncsc1-c1ccc([C@H](C)NC(=O)[C@@H]2C[C@@H](O)CN2C(=O)C(c2cc(OC3CN(c4ccc(S(=O)(=O)NC(=O)c5nc(N6CCc7cccc(C(=O)Nc8nc9ccccc9s8)c7C6)ccc5-c5cnn(CC6CCCCC6)c5C)cc4)C3)no2)C(C)C)cc1 (some centres unmarked) [I-230]	> 75	< 10	> 75	10 to 100	
Cc1ncsc1-c1ccc([C@H](C)NC(=O)[C@@H]2C[C@@H](O)CN2C(=O)[C@@H](NC(=O)N2CCC(CN3CCN(CC#Cc4ccc(OCCCc5sc(N6CCc7cccc(C(=O)Nc8nc9ccccc9s8)c7C6)nc5C(=O)O)c(F)c4)CC3)CC2)C(C)(C)C)cc1 [I-72]	< 50		< 50	10 to 100	
Cc1cc(N2CCC(C(=O)N[C@H](C(=O)N3C[C@H](O)C[C@H]3C(=O)N[C@@H](C)c3ccc(-c4scnc4C)cc3)C(C)(C)C)CC2)ccc1S(=O)(=O)NC(=O)c1nc(N2CCc3cccc(C(=O)Nc4nc5ccccc5s4)c3C2)ccc1-c1cnn(CC2CCCCC2)c1C [I-275]	> 75	< 10	> 75	10 to 100	
Cc1ncsc1-c1ccc([C@H](C)NC(=O)[C@@H]2C[C@@H](O)CN2C(=O)C(c2cc(OC3CC4(C3)CN(C(=O)c3nc(N5CCc6cccc(C(=O)Nc7nc8ccccc8s7)c6C5)ccc3-c3cnn(CC5CCCCC5)c3C)C4)no2)C(C)C)cc1 (some centres unmarked) [I-237]	> 75	< 10	50 to 75	100 to 500	
Cc1ncsc1-c1ccc([C@H](C)NC(=O)[C@@H]2C[C@@H](O)CN2C(=O)[C@@H](NC(=O)CCCCCS(=O)(=O)NC(=O)c2ccc(N3CCN(CC4=C(c5ccc(Cl)cc5)CCC(C)(C)C4)CC3)cc2)C(C)(C)C)cc1 [I-106]	< 50	> 1000			
Cc1cc(N(CCN(C)C(=O)CCCCCOc2cc(-c3scnc3C)ccc2CNC(=O)[C@@H]2C[C@@H](O)CN2C(=O)[C@@H](NC(=O)C2(F)CC2)C(C)(C)C)c2ccc(-c3cnn(CC4CCCCC4)c3C)c(C(=O)O)n2)nnc1Nc1nc2ccccc2s1 [I-103]	< 50	> 1000			
Cc1ncsc1-c1ccc(CNC(=O)[C@@H]2C[C@@H](O)CN2C(=O)[C@@H](NC(=O)C2(F)CC2)C(C)(C)C)c(OCCCCCCCC(=O)N(C)CCCc2cccc(F)c2OCCCc2sc(N3CCc4cccc(C(=O)Nc5nc6ccccc6s5)c4C3)nc2C(=O)O)c1 [I-14]	> 75	100 to 500			
Cc1cc(N(CCN(C)C(=O)CCCCCCCCOc2cc(-c3scnc3C)ccc2CNC(=O)[C@@H]2C[C@@H](O)CN2C(=O)[C@@H](NC(=O)C2(F)CC2)C(C)(C)C)c2ccc(-c3cnn(CC4CCCCC4)c3C)c(C(=O)O)n2)nnc1Nc1nc2ccccc2s1 [I-104]	< 50	> 1000			
Cc1ncsc1-c1ccc([C@H](C)NC(=O)[C@@H]2C[C@@H](O)CN2C(=O)[C@@H](NC(=O)CCCCCC(=O)N(C)CC#Cc2ccc(OCCCc3sc(N4CCc5cccc(C(=O)Nc6nc7ccccc7s6)c5C4)nc3C(=O)O)c(F)c2)C(C)(C)C)cc1 [I-3]	> 75	10 to 100			
Cc1ncsc1-c1ccc([C@H](C)NC(=O)[C@@H]2C[C@@H](O)CN2C(=O)[C@@H](NC(=O)CCCCCC(=O)N2CCN(CC#Cc3ccc(OCCCc4sc(N5CCc6cccc(C(=O)Nc7nc8ccccc8s7)c6C5)nc4C(=O)O)cc3)CC2)C(C)(C)C)cc1 [I-93]	50 to 75	> 1000			
